≈ marks a conversion by molar mass, not a printed value.
Experiments:
[1] = test system: human non-small cell lung carcinoma cells (H1299); experiment: Boyden chamber invasion assay, H1299; type: cell-based; conditions: 2.5, 5 and 10 μM, 24 h, dose dependency (FIG. 2C)
Experimental: (§1) Cells were harvested by […] and resuspended in a serum-free medium with 0.1% BSA. Then, […] of cell suspension (2×10^5 cells) was seeded into the upper insert of SPLInsert with Polyethylene terephthalate (PET) membrane (pore size: 8.0 μm) (SPL Lifesciences, Korea) pre-coated with matrigel (BD Biosciences, San Jose, Calif.). The bottom well of 24-well plate of SPLInsert was filled with cell medium containing 10% FBS with different concentrations of isoplumbagin (5, 7.5 and 10 μM, Experimental group of oral squamous cell carcinoma cells (OC3-IV2); 2.5, 5 and 10 μM, Experimental groups of human primary glioblastoma cells (U87), human non-small cell lung carcinoma cells (H1299), human prostate cancer cells (PC3) and human cervical cancer cells (Hela)) or without isoplumbagin (DMSO added). […] Number of cells was counted using Image J. Relative invasion ability was calculated as cell number per area.
(§2) FIGS. 2A-2E show the inhibitory effect of different doses of isoplumbagin on invasion for oral squamous cell carcinoma cells (OC3-IV2), human primary glioblastoma cells (U87), human non-small cell lung carcinoma cells (H1299), prostate cancer cells (PC3) and cervical cancer cells (Hela) assessed with the Boyden chamber assays. *Compared with solvent control (DMSO). […]

[2] = test system: human cervical cancer cells (Hela); experiment: Boyden chamber invasion assay, Hela; type: cell-based; conditions: 2.5, 5 and 10 μM, 24 h, dose dependency (FIG. 2E)
Experimental: as §1, §2

[3] = test system: human non-small cell lung carcinoma cells (H1299); experiment: MTT survival assay, H1299; type: cell-based; conditions: NCI-H1299, 48 h, read-out: IC50, survival rate
Experimental: According to the present invention, human non-small cell lung carcinoma cell H1299 were obtained from ATCC (ATCC® CRL-5803™) cultured in Roswell Park Memorial Institute (RPMI) 1640 medium (Invitrogen) containing 10% FBS, 1% L-Gln and 1% AA. Cells were maintained in a humidified atmosphere containing 5% CO2 at 37° C., and the culture medium was replaced every 2 days.
Isoplumbagin (AKOS006277326, acquired from AKos GmbH, Steinen, Germany) was dissolved in dimethyl sulfoxide (DMSO) and added to the medium, so that the final concentration of DMSO was less than 0.1%. The survival rate of isoplumbagin on OC3-IV2, U87, H1299 and PC3 cell lines was determined using the 3-(4,5-dimethylthiazol-2-yl)-2,5-diphenyltetrazolium bromide (MTT; Sigma-Aldrich) assays. 3×10^3 cells/well were seeded in 96-well plates. After incubation for 24 h, cells were treated with isoplumbagin at various concentrations (0, 1, 5, 10, 25, 50 and 100 μM) and incubated for a further 48 h. At the end of treatment, 10 μL 5 mg/mL MTT was added to each well. After incubation at 37° C. for 3 h, medium was removed and DMSO was added to each well to dissolve reduced MTT product formazan. The absorbance of dissolved formazan was measured at 550 nm wavelengths by a spectrophotometer. […]

mitochondrial complex IV = experiment: Mitochondrial complex activity in permeabilized cells (Oroboros); type: cell-based, human; conditions: OC3-IV2 permeabilized with 5 μM digitonin; 2.5 μM
Experimental: For the cell permeabilization and measurement of mitochondrial complex activity in permeabilized cells using Oroboros Instruments, 5×10^5 cells/mL treated with DMSO or 2.5 μM isoplumbagin suspended in 2 mL MiR05 buffer (110 mM D-sucrose, 0.5 mM EGTA, 3.0 mM MgCl2, 60 mM lactobionic acid, 10 mM KH2PO4, 20 mM taurine, 20 mM HEPES, 1 g/L BSA, pH 7.1) were added in O2k Oxygraph chambers. After cells had stabilized at routine respiration, plasma membrane permeabilization was performed by adding 5 μM digitonin and then O2 consumption rate was measured in response to sequential additions of 10 mM glutamate and 2 mM malate or 10 mM succinate, followed by 5 mM ADP, […], 0.5 μM FCCP, 1 μM rotenone, 1 μM antimycin A, 0.1 mM TMPD, 0.4 mM ascorbate and 5 mM NaN3.
FIGS. 6A and 6B show the inhibitory effect of isoplumbagin on mitochondrial function and complex IV activity of oral squamous cell carcinoma cells (OC3-IV2). Oxygen consumption rate (OCR) of OC3-IV2 cells treated with DMSO (as control) or 2.5 μM isoplumbagin were measured by Oroboros instruments (FIG. 6A). […] OC3-IV2 cells treated with DMSO or 2.5 μM isoplumbagin were permeabilized with 5 μM digitonin (Dig) and added indicated substrates and inhibitors, and then mitochondria complex I/IV activity were determined by Oroboros instruments (FIG. 6B). […]

In the case of CC1=CC(=O)c2cccc(O)c2C1=O [isoplumbagin, 5-hydroxy-3-methyl-1,4-naphthoquinone], the “cancer cells migrating through the membrane (invasion)” value [1] is reported as “decrease significantly”, the “cancer cells migrating through the membrane (invasion)” value [2] is reported as “decrease significantly” and the IC50 [3] is reported as 0.28 µg/mL (≈ 1.49 µM). For the same compound, the “mitochondrial complex IV activity” value (mitochondrial complex IV) was “inhibiting mitochondrial complex IV activity”.

From patent publication US20210113492A1, “METHOD FOR INHIBITING PROLIFERATION AND METASTASIS OF CANCER CELLS BY USING NAPHTHOQUINONE DERIVATIVE” (National Tsing Hua University, priority 2019, published 2021)
